Each molecule was assayed against recombinant human Nav1.7 (Homo sapiens (Human), UniProt Q15858) (assay: FRET-based membrane potential assay, recombinant human sodium channel Nav1.7). Details: FRET-Membrane Potential Nav1.7 IC50.
Type: cell-based
Procedure: FRET-Based Membrane Potential Assays.
Recombinant, Human Sodium Channel, Nav1.7.
On the day of the assay, medium was removed by aspiration, and cells were washed with assay buffer [HBSS (Invitrogen, Carlsbad, Calif.) containing 20 mM HEPES (Invitrogen, Carlsbad, Calif.)]. […] Cells were incubated for 40 minutes at room temperature in the dark. […] The cells were incubated for 90 minutes at room temperature in the dark. Fluorescence readings were made using a FLIPR®^TETRA (Molecular Devices, Sunnyvale Calif.) equipped with voltage-sensor probe optics. At the start of each experiment the optimal (EC80) concentration of depolarizing agent (veratridine) was determined by testing a dilution curve of assay buffer containing veratridine (Sigma-Aldrich, St. Louis, Mo.) and 1 mg/mL scorpion venom (SVqq, from Leiurus quinquestriatus; Sigma-Aldrich, St. Louis, Mo.). […] Test compounds in the daughter plate were diluted to (˜3×) solutions in assay buffer immediately before assaying. Using the FLIPR®^TETRA, 20 μL of the (3×) compound solutions were first added to the cells, then 20 μL of depolarizing solution (3×EC80 veratridine+SVqq) were added 3 minutes later to activate the channel. […] IC50 values were calculated from curve fits of the ratio data using a four-parameter logistic Hill equation (Accelrys Assay Explorer 3.3 Client, Accelrys, San Diego, Calif.) with percent inhibition plotted against compound concentration.

recombinant human Nav1.7, sequence (Q15858 whole entry): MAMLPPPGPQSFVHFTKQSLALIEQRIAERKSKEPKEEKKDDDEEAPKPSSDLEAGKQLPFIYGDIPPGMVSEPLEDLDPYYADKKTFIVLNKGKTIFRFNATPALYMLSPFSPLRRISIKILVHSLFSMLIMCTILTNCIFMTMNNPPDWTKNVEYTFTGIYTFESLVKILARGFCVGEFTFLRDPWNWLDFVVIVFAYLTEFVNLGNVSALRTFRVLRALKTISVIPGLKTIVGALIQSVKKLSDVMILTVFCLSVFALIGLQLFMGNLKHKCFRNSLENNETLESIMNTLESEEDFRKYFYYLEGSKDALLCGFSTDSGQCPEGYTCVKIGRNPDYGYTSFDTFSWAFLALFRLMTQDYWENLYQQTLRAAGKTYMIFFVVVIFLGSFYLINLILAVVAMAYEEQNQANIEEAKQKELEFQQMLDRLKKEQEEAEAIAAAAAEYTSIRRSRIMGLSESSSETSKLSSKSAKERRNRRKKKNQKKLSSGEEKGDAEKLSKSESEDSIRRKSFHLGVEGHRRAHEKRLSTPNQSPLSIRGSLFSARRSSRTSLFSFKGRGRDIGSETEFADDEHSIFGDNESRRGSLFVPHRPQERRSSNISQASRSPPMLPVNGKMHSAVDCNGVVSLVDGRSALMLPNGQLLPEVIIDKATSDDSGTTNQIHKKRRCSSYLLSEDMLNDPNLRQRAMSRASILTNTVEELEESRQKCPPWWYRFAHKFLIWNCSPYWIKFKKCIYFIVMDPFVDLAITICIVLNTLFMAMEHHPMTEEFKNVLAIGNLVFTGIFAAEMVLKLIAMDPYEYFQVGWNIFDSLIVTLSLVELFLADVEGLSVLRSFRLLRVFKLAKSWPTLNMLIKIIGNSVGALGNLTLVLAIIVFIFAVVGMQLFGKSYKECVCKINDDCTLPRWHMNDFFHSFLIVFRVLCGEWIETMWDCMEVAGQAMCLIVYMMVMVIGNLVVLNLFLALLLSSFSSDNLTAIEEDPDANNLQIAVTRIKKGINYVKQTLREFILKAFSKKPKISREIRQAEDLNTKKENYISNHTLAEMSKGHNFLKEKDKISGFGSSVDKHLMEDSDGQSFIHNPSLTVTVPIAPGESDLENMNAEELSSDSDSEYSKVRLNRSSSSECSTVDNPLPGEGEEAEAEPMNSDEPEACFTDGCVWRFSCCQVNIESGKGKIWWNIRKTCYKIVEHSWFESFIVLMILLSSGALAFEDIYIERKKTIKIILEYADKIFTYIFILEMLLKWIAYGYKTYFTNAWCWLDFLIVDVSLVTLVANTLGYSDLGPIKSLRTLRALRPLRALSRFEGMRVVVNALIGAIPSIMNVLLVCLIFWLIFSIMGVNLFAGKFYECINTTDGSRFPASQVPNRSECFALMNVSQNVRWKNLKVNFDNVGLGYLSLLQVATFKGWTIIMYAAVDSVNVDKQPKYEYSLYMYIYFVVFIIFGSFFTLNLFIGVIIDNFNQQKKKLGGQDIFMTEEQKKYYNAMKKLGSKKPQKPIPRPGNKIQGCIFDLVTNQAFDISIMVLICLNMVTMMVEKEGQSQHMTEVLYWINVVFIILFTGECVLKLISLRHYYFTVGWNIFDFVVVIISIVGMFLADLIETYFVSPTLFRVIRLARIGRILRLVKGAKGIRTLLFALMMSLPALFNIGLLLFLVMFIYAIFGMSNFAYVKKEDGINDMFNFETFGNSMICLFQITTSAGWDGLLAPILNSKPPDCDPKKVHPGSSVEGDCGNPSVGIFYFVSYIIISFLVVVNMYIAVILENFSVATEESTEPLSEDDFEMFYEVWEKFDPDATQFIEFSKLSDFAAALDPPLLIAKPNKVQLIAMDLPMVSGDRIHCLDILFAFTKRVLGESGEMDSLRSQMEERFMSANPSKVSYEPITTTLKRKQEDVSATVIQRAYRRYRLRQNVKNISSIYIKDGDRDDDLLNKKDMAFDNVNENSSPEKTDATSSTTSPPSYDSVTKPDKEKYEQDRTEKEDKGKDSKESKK

Question: `O=C(c1ccc2cc(Oc3ccc(C(F)(F)F)cn3)ccc2n1)N1CC[C@H](O)[C@H](F)C1` (relative stereo) [Example 191, [cis-3-fluoro-4-hydroxypiperidin-1-yl](6-{[5-(trifluoromethyl)pyridin-2-yl]oxy}quinolin-2-yl)methanone] was tested. Which IC50 did it give?
Answer: Its IC50 is > 20 µM.

Question: For `O=C(c1ccc2cc(Oc3ccc(C(F)(F)F)cn3)ccc2n1)N1CC[C@@H](O)[C@H](F)C1` (relative stereo) [Example 195, [trans-3-fluoro-4-hydroxypiperidin-1-yl](6-{[5-(trifluoromethyl)pyridin-2-yl]oxy}quinolin-2-yl)methanone], which IC50 is on record?
Answer: The IC50 was 7.6 µM.

Same assay, conditions: HEK293 cells stably expressing recombinant human Nav1.7; veratridine + scorpion venom depolarization; read-out: FRET-Membrane Potential Nav1.7 IC50

Question: For “1,4-diazepan-1-yl(6-{[5-(trifluoromethyl)pyridin-2-yl]oxy}quinolin-2-yl)methanone [Example 219]”, which IC50 is on record?
Answer: Its IC50 is 2.56 µM.

Question: `CC1[C@@H](O)[C@@H](O)C(C)N1C(=O)c1ccc2cc(Oc3ccc(C(F)(F)F)cn3)ccc2n1` (mixture of isomers) [Example 323, rac-[(3R,4S)-3,4-dihydroxy-2,5-dimethylpyrrolidin-1-yl](6-{[5-(trifluoromethyl)pyridin-2-yl]oxy}quinolin-2-yl)methanone] was tested. Which IC50 did it give?
Answer: The IC50 was > 20 µM.

Question: How did the IC50 turn out when `O=C(c1ccc2cc(Oc3ccc(C(F)(F)F)cn3)ccc2n1)N1CC[C@H](F)[C@H](O)C1` (relative stereo) [Example 192, [cis-4-fluoro-3-hydroxypiperidin-1-yl](6-{[5-(trifluoromethyl)pyridin-2-yl]oxy}quinolin-2-yl)methanone] was run?
Answer: Its IC50 is 17.7 µM.

Question: `O=C(c1ccc2cc(Oc3ccc(C(F)(F)F)cn3)ccc2n1)N1CC[C@@H](F)[C@H](O)C1` (relative stereo) [Example 196, [trans-4-fluoro-3-hydroxypiperidin-1-yl](6-{[5-(trifluoromethyl)pyridin-2-yl]oxy}quinolin-2-yl)methanone] was tested. Which IC50 did it give?
Answer: Its IC50 is 4.93 µM.

Question: With `O=C(c1ccc2cc(Oc3ccc(C(F)(F)F)cn3)ccc2n1)N1C[C@@H](O)[C@H](O)C1` (relative stereo) [Example 303, [trans-3,4-dihydroxypyrrolidin-1-yl](6-{[5-(trifluoromethyl)pyridin-2-yl]oxy}quinolin-2-yl)methanone] as the molecule, how does the IC50 read?
Answer: The IC50 was 5.68 µM.

Question: How did the IC50 turn out when `CO[C@@H]1CN(C(=O)c2ccc3cc(Oc4ccc(C(F)(F)F)cn4)ccc3n2)C[C@H]1O` (relative stereo) [Example 305, [trans-3-hydroxy-4-methoxypyrrolidin-1-yl](6-{[5-(trifluoromethyl)pyridin-2-yl]oxy}quinolin-2-yl)methanone] was run?
Answer: The IC50 was 13.6 µM.

Question: How did the IC50 turn out when `C[C@@H]1CN(C(=O)c2ccc3cc(Oc4ccc(C(F)(F)F)cn4)ccc3n2)C[C@H]1O` (relative stereo) [Example 306, [trans-3-hydroxy-4-methylpyrrolidin-1-yl](6-{[5-(trifluoromethyl)pyridin-2-yl]oxy}quinolin-2-yl)methanone] was run?
Answer: Its IC50 is 14.8 µM.

Question: For `O=C(c1ccc2cc(Oc3ccc(C(F)(F)F)cn3)ccc2n1)N1CC[C@H](O)[C@H](O)C1` (relative stereo) [Example 350, [cis-3,4-dihydroxypiperidin-1-yl](6-{[5-(trifluoromethyl)pyridin-2-yl]oxy}quinolin-2-yl)methanone], which IC50 is on record?
Answer: Its IC50 is > 20 µM.

Question: `CS(=O)(=O)[C@@H]1CN(C(=O)c2ccc3cc(Oc4ccc(C(F)(F)F)cn4)ccc3n2)C[C@H]1O` (relative stereo) [Example 351, [trans-3-hydroxy-4-(methylsulfonyl)pyrrolidin-1-yl](6-{[5-(trifluoromethyl)pyridin-2-yl]oxy}quinolin-2-yl)methanone] was tested. Which IC50 did it give?
Answer: Its IC50 is 3.6 µM.

Question: Which IC50 does the source give for `COCO[C@H]1CN(C(=O)c2ccc3cc(Oc4ccc(C(F)(F)F)cn4)ccc3n2)C[C@H]1O` (relative stereo) [Example 368, [cis-3-hydroxy-4-(methoxymethoxy)pyrrolidin-1-yl](6-{[5-(trifluoromethyl)pyridin-2-yl]oxy}quinolin-2-yl)methanone] here?
Answer: The IC50 was 1.25 µM.

Question: `O=C(NCC(O)C(F)(F)F)c1ccc2cc(Oc3ccc(C(F)(F)F)cn3)ccc2n1` (stereo not drawn) [Example 75, N-(3,3,3-trifluoro-2-hydroxypropyl)-6-{[5-(trifluoromethyl)pyridin-2-yl]oxy}quinoline-2-carboxamide] was tested. Which IC50 did it give?
Answer: Its IC50 is 0.944 µM.

Question: With `O=C(c1ccc2cc(Oc3ccccn3)ccc2n1)N1CCOCC1` [Example 76, morpholin-4-yl[6-(pyridin-2-yloxy)quinolin-2-yl]methanone] as the molecule, how does the IC50 read?
Answer: The IC50 was > 20 µM.

Question: How did the IC50 turn out when `CN1CCN(C(=O)c2ccc3cc(Oc4ccccn4)ccc3n2)CC1` [Example 77, (4-methylpiperazin-1-yl)[6-(pyridin-2-yloxy)quinolin-2-yl]methanone] was run?
Answer: Its IC50 is > 20 µM.

Question: With `CN1CCN(C(=O)c2ccc3cc(Oc4ccc(C#N)cc4)ccc3n2)CC1` [Example 81, 4-({2[(4-methylpiperazin-1-yl)carbonyl]quinolin-6-yl}oxy)benzonitrile] as the molecule, how does the IC50 read?
Answer: Its IC50 is 1.87 µM.

Question: With `N#Cc1ccc(Oc2ccc3nc(C(=O)N4CCOCC4)ccc3c2)cc1` [Example 83, 4-{[2-(morpholin-4-ylcarbonyl)quinolin-6-yl]oxy}benzonitrile] as the molecule, how does the IC50 read?
Answer: Its IC50 is > 20 µM.

Question: Which IC50 does the source give for `N#Cc1ccc(Oc2ccc3nc(C(=O)NCCCN4CCOCC4)ccc3c2)cc1` [Example 87, 6-(4-cyanophenoxy)-N-[3-(morpholin-4-yl)propyl]quinoline-2-carboxamide] here?
Answer: Its IC50 is 1.23 µM.

Question: With `N#Cc1ccc(Oc2ccc3nc(C(=O)Nc4nccs4)ccc3c2)cc1` [Example 88, 6-(4-cyanophenoxy)-N-(1,3-thiazol-2-yl)quinoline-2-carboxamide] as the molecule, how does the IC50 read?
Answer: Its IC50 is > 20 µM.

Question: How did the IC50 turn out when `N#Cc1ccc(Oc2ccc3nc(C(=O)NCc4cccnc4)ccc3c2)cc1` [Example 89, 6-(4-cyanophenoxy)-N-(pyridin-3-ylmethyl)quinoline-2-carboxamide] was run?
Answer: The IC50 was 1.52 µM.

Question: How did the IC50 turn out when `N#Cc1ccc(Oc2ccc3nc(C(=O)N[C@H]4CCOC4=O)ccc3c2)cc1` [Example 90, 6-(4-cyanophenoxy)-N-[(3S)-2-oxotetrahydrofuran-3-yl]quinoline-2-carboxamide] was run?
Answer: Its IC50 is 0.368 µM.

Question: `CC(C)[C@H](CO)NC(=O)c1ccc2cc(Oc3ccc(C#N)cc3)ccc2n1` [Example 91, 6-(4-cyanophenoxy)-N-[(2R)-1-hydroxy-3-methylbutan-2-yl]quinoline-2-carboxamide] was tested. Which IC50 did it give?
Answer: Its IC50 is 3.25 µM.

Question: How did the IC50 turn out when `N#Cc1ccc(Oc2ccc3nc(C(=O)NCc4cccs4)ccc3c2)cc1` [Example 92, 6-(4-cyanophenoxy)-N-(2-thienylmethyl)quinoline-2-carboxamide] was run?
Answer: The IC50 was 9.83 µM.

Question: For `N#Cc1ccc(Oc2ccc3nc(C(=O)NCCc4cccs4)ccc3c2)cc1` [Example 93, 6-(4-cyanophenoxy)-N-[2-(2-thienyl)ethyl]quinoline-2-carboxamide], which IC50 is on record?
Answer: Its IC50 is 1.55 µM.

Question: How did the IC50 turn out when `N#Cc1ccc(Oc2ccc3nc(C(=O)NCc4ccco4)ccc3c2)cc1` [Example 94, 6-(4-cyanophenoxy)-N-(2-furylmethyl)quinoline-2-carboxamide] was run?
Answer: Its IC50 is 5.25 µM.

Question: Which IC50 does the source give for `CC(C)C(CO)NC(=O)c1ccc2cc(Oc3ccc(C#N)cc3)ccc2n1` (stereo not drawn) [Example 95, 6-(4-cyanophenoxy)-N-(1-hydroxy-3-methylbutan-2-yl)quinoline-2-carboxamide] here?
Answer: Its IC50 is 4.87 µM.

Question: For `N#Cc1ccc(Oc2ccc3nc(C(=O)NCCN4CCCC4)ccc3c2)cc1` [Example 96, 6-(4-cyanophenoxy)-N-[2-(pyrrolidin-1-yl)ethyl]quinoline-2-carboxamide], which IC50 is on record?
Answer: The IC50 was 0.329 µM.

Question: For `N#Cc1ccc(Oc2ccc3nc(C(=O)NCc4ccncc4)ccc3c2)cc1` [Example 98, 6-(4-cyanophenoxy)-N-(pyridin-4-ylmethyl)quinoline-2-carboxamide], which IC50 is on record?
Answer: Its IC50 is 0.885 µM.

Same assay, conditions: read-out: FRET-Membrane Potential Nav1.7 IC50

Question: With `Cc1noc(C2CCCN(C(=O)c3ccc4cc(Oc5ccccn5)ccc4n3)C2)n1` (stereo not drawn) [Example 78, [3-(3-methyl-1,2,4-oxadiazol-5-yl)piperidin-1-yl][6-(pyridin-2-yloxy)quinolin-2-yl]methanone] as the molecule, how does the IC50 read?
Answer: The IC50 was > 20 µM.

Question: Which IC50 does the source give for `O=C(NCCN1CCCCC1)c1ccc2cc(Oc3ccccn3)ccc2n1` [Example 79, N-[2-(piperidin-1-yl)ethyl]-6-(pyridin-2-yloxy)quinoline-2-carboxamide] here?
Answer: The IC50 was > 20 µM.

Question: For `O=C(Nc1ncns1)c1ccc2cc(Oc3ccccn3)ccc2n1` [Example 80, 6-(pyridin-2-yloxy)-N-(1,2,4-thiadiazol-5-yl)quinoline-2-carboxamide], which IC50 is on record?
Answer: The IC50 was > 20 µM.

Question: `N#Cc1ccc(Oc2ccc3nc(C(=O)NCCN4CCCCC4)ccc3c2)cc1` [Example 82, 6-(4-cyanophenoxy)-N-[2-(piperidin-1-yl)ethyl]quinoline-2-carboxamide] was tested. Which IC50 did it give?
Answer: Its IC50 is 0.222 µM.

Question: `N#Cc1ccc(Oc2ccc3nc(C(=O)Nc4ccc5cn[nH]c5c4)ccc3c2)cc1` [Example 84, 6-(4-cyanophenoxy)-N-(1H-indazol-6-yl)quinoline-2-carboxamide] was tested. Which IC50 did it give?
Answer: Its IC50 is > 20 µM.

Question: For `CN(C)CCCNC(=O)c1ccc2cc(Oc3ccc(C#N)cc3)ccc2n1` [Example 85, 6-(4-cyanophenoxy)-N-[3-(dimethylamino)propyl]quinoline-2-carboxamide], which IC50 is on record?
Answer: Its IC50 is 0.238 µM.

Question: With `N#Cc1ccc(Oc2ccc3nc(C(=O)NCCN4CCOCC4)ccc3c2)cc1` [Example 86, 6-(4-cyanophenoxy)-N-[2-(morpholin-4-yl)ethyl]quinoline-2-carboxamide] as the molecule, how does the IC50 read?
Answer: Its IC50 is 1.74 µM.

Question: With `N#Cc1ccc(Oc2ccc3nc(C(=O)NCc4ccccn4)ccc3c2)cc1` [Example 97, 6-(4-cyanophenoxy)-N-(pyridin-2-ylmethyl)quinoline-2-carboxamide] as the molecule, how does the IC50 read?
Answer: Its IC50 is 0.842 µM.
